Source: patent US5935840A, “Activated recombinant adenovirus proteinases” (priority 1995, dated 1999)
Entries after “also recorded” stand apart in the source; their conditions may differ. No end group written: not given here.

What was measured:
[1] = test system: Ad2 major core protein precursor, pVII; test: Assay of adenovirus proteinase activity in crude extracts: cleavage of [35S]-methionine-labeled pVII (SDS-PAGE, autoradiography); format: biochemical, adenovirus type 2; settings: for Proteinase activity (cleavage of pVII): log phase cells
Protocol: The expression products of the above-described Ad2 and Ad12 proteinase plasmids were tested for their ability to cleave the Ad2 major core protein precursor, pVII, in crude extracts from adenovirus-infected cells. The extracts were obtained from human cells infected with the temperature-sensitive mutant Ad2 strain, H2ts1, which has a defective proteinase. As described below, adenovirus proteinase activity requires the presence of two cofactors. […] The recombinant proteinases were also characterized by peptide sequence analysis of their amino-termini.
Bacterial extracts were incubated with the radiolabeled substrate (pVII). Samples were removed at different times and analyzed by SDS-PAGE and autoradiography. […] Appearance of the processed VII band and concurrent decrease of the precursor pVII band indicates proteinase activity. Radiolabeled proteins of Ad2 virions were run on the gel to indicate the positions of pVII, VII, and other virion components (lane a). Extracts from Ad2 -infected HeLa cells were assayed as a positive control for proteinase activity (lane b).
Adenovirus proteinase activity was monitored by the cleavage of [^35 S]-methionine-labeled major core precursor (pVII) essentially as described (Bhatti and Weber, Biochem. Biophys. Res. Comm. 81: 973-797, (1978)). The proteinase substrate was prepared from Ad2Ad2tsl-infected HeLa cells grown at 39° C. and labeled with [^35 S]-methionine (200 μCi/plate) from approximately 28 to 30 hours after infection. Labeled cultures were harvested, washed twice in Phosphate Buffered Saline (PBS), resuspended in 1.0 ml of 10 mM sodium phosphate buffer, pH 7.4, per plate, and sonicated for 40 seconds using a water-cooled sonicator horn (Branson Sonic Power Co., Danbury, Conn.). The extract was then centrifuged at 12,000×g for 10 minutes, and the pellet was resuspended in 10 mM phosphate buffer.
Extracts of Ad-infected cells, harvested 40 hours after infection at 37° C. were used as a source of viral proteinase. Harvested cultures were washed twice with PBS, resuspended in 10 mM phosphate buffer, frozen and thawed once, and centrifuged at 12,000×g for 10 minutes. Pellets were resuspended in 1.0 ml phosphate buffer, pH 7.4, per 10^6 infected cells and sonicated 4×10 seconds; samples were stored at -70° C. Bacterial extracts were prepared by lysozyme-EDTAtreatment of cultures harvested 2 hours after IPTG induction.
Assays were performed by mixing equal volumes of [^35 S]-labeled substrate and test extract and incubating at 37° C. At different times, 25 μl samples were removed, mixed with 25 μl of SDS Sample Buffer, heated to 90° C., and analyzed by SDS-polyacrylamide gel electrophoresis and autoradiography as described (Anderson et al., J. Virol. 12: 241-252 (1973).
Recombinant proteinase polypeptides were assayed for proteinase activity by incubating whole-cell extracts of BL21 (DE3), pT7AD23K5/BL21(DE3), and pT7AD23k6/BL21(DE3), prepared as described above, with extracts of [^35 S]-methionine-labeled Ad2 virion precursor polypeptides. Incubation of the labeled extract at 37° C. for up to 20 hours, alone or with an extract prepared from uninfected HeLa cells, produced little change in the pattern of labeled polypeptides.

HEP1DBP = test: Cleavage of artificial protein substrate HEP1DBP (SDS-polyacrylamide gel electrophoresis); format: biochemical
Text: Recombinant protein substrates that resemble natural virion precursors, such as pVI, can be produced in E. coli by genetic engineering methods similar to those used for expression of recombinant adenovirus proteinase. The recombinant substrate may have an artificial leader sequence that can be removed by proteinase-mediated cleavage. The leader can be designed to aid in purification of the substrate; thus the recombinant substrate can be produced and purified much more efficiently than natural adenovirus substrates. Recombinant protein substrates also serve as prototypes of potential commercial products, showing that the adenovirus proteinase will remove an artificial leader sequence from a recombinant protein that is not related to any adenovirus protein. The first artificial protein substrate was called HEP1DBP. It consists of a 17 amino acid leader (Met-Ala-Ser-Met-Thr-Gly-His-His-His-His-His-His-Gly-Met-Ser-Gly-Gly-) (SEQ ID NO: 37) attached to the initiating methionine of the 232 amino acid DNA binding protein (DBP), of bacteriophage T7. The T7 DBP is the product of gene 2.5. The recombinant proteinase substrate is produced by induction of a pET expression plasmid called pT7HEP1DBP (also called pT7HIS2) (FIG. 7A and Example 11); the predicted sequence of the expressed substrate is given in Table 1. The leader sequence contains six consecutive histidine residues to permit purification by metal affinity chromatography in a manner analogous to purification of the adenovirus proteinase. Immediately preceding the methionine corresponding to the initiation site of the T7 DBP is the tetra-amino acid element -Met-Ser-Gly-Gly- (SEQ ID NO: 38). This segment corresponds to the proteinase recognition sequence in the adenovirus virion precursor polypeptide pVI. The size of the leader sequence was chosen so that the substrate precursor HEP1DBP, and the predicted major product after cleavage, the T7 DBP, could easily be distinguished by SDS-polyacrylamide gel electrophoresis.
When purified HEP1DBP was incubated with disrupted wild-type adenovirus 2 virions, it was cleaved, as determined from the change in its mobility during SDS-polyacrylamide gel electrophoresis. No cleavage was observed when incubation was with disrupted H2ts1 virions alone.
Plasmid pT7HEP1DBP (5346 bp) is a pET-3 derivative that expresses the […] T7 gene 2.5 protein (a single-stranded DNA binding protein) attached to a 17-amino acid leader sequence (FIG. 19). The 249-amino acid HEP1DBP polypeptide serves as an artificial substrate for the adenovirus EP; the leader peptide, MASMTGHHHHHHGMSGG- (SEQ ID NO: 37), ends with the Ad2 proteinase recognition sequence -MSGG- (SEQ ID NO: 38) [Anderson, C. […]

[2] = molecular target: T1, Ad2 proteinase (rEP protein) (Human adenovirus C serotype 2, UniProt P03252); format: biochemical, human adenovirus type 2; settings: for Rate (pmol substrate min^-1) / Stimulation (fold): rate in presence of effector divided by rate in its absence: 8.3 nM rEP protein, 98 nM pVIc peptide; for Rate (pmol substrate min^-1): 1 μM (Leu-Arg-Gly-Gly-NH)2-rhodamine, effector at concentration giving maximal stimulation; for Stimulation (fold): rate in presence of effector divided by rate in its absence: 1 μM substrate; for Effector concentration that gave maximal stimulation of proteinase activity: moles of molecules per liter, 8.3 nM rEP, 98 nM pVIc
T1 construct: Plasmid pT7AD23k6 contains the 204 codons of the Ad2 proteinase reading frame plus a translational termination codon; made in house; host or cells: E. coli BL21(DE3)
Text: The nature of the proteinase cofactor(s) was pursued with the aid of the second assay, which utilizes the substrate (Leu-Arg-Gly-Gly-NH)2 -rhodamine. The design of this substrate was based on two facts. (1) It was known that the proteinase present in disrupted Ad2 virions would cleave small peptides with sequence similar to that found at natural cleavage sites in adenovirus virion precursors (Webster et al., 1989). (2) Cleavage of either tetra-peptide sequence from the substituted rhodamine substrate produces a very large increase, up to a 3500-fold, in fluorescence. Under conditions where only a small fraction of the rhodamine substrate is cleaved, the increase in fluorescence is proportional to the amount of proteinase present and to the time of incubation. Thus, the fluorescence assay provides a quantitative method for assessing proteinase activity that is more sensitive convenient and rapid than the gel electrophoresis assay.
After determining the identity of the two cofactors, reconstitution of adenovirus proteinase activity in vitro with purified components was accomplished. […] In (a), Assays in 1 ml contained 1.2 nM rEP protein, 11.9 pM Ad2 DNA and the indicated concentrations of pVI-c peptide. The rate of substrate hydrolysis is the rate in the reaction minus the rate with the rEP protein and Ad2 DNA alone which was 0.068 pmol min^-1. In (b), Assays in 1 ml contained 1.2 nM rEP protein, 36 nM pVI-c peptide and the indicated concentrations of Ad2 DNA. The rate of substrate hydrolysis is the rate in the reaction minus the rate with the rEP protein and pVI-c alone which was 2.76 pmol min^-1. The concentration of (Leu-Arg-Gly-Gly-NH)2 -rhodamine was 5 μM, and its rate of hydrolysis to Leu-Arg-Gly-Gly-NH-rhodamine was determined by measuring the increase in fluorescence every 3 minutes for 15 minutes. The pVI-c peptide was assembled in a peptide synthesizer.
Assays were performed in 400 μl of Assay Buffer (50 mM Tris-HCl, pH 7.4, 25 mM NaCl, 10 mM octylglucoside, and 1 mM dithiothreitol). The concentration of the fluorogenic substrate, (Leu-Arg-Gly-Gly-NH)2 -rhodamine was 5 μM. When present, the number of disrupted virus particles was 10^10 and the amount of recombinant proteinase was 0.12 mAU280 nm. […] After 30 minutes at 37° C., a 360 μl aliquot of the reaction was added to 340 μl of Assay Buffer minus octylglucoside, and the increase in fluorescence was measured. The excitation wavelength was 492 nm and the emission wavelength was 523 nm, both with a bandwidth of 5 nm. The change in fluorescence, ΔF, is the magnitude of the fluorescence from the sample minus the magnitude of the fluorescence from an identical solution without enzyme.
DNase-treated disrupted virus was obtained by incubating 2×10^10 disrupted virions in 20 μl containing 0.1M NaAc, pH 5.0, 5 mM MgCl2, and 55 μg/ml DNase I for 4 minutes at 25° C. Then, EDTA to 23 mM and dithiothreitol to 2.3 mM were added, and the reactions were heated at 56° C. for 1 minute to inactivate the DNase.
For the assays shown in FIG. 8, the DNase reactions were diluted by the addition of 380 μl Assay Buffer containing the substrate, the proteinase and either 2×10^10 molecules of Ad2 DNA (+) or no DNA (-). After 30 minutes at 37° C., 360 μl of the reactions were added to 340 μl Assay Buffer minus octylglucoside and the increase in fluorescence was measured. The assays in (B) and (C) were identical to those in (A) except that in (B) H2ts1 virus was added after the DNase was inactivated (i-DNase) and in (C) no Dnase was present. In (D) recombinant proteinase plus 10^10 molecules of Ad2 DNA were preincubated for 10 minutes at 37° C. before adding substrate.
.dagger. All assays contained 8.3 nM rEP protein, 98 nM pVIc peptide, and
1 μM (Leu--Arg--Gly--Gly--NH)2rhodamine. The rate of substrate

T1 sequence (P03252 whole entry): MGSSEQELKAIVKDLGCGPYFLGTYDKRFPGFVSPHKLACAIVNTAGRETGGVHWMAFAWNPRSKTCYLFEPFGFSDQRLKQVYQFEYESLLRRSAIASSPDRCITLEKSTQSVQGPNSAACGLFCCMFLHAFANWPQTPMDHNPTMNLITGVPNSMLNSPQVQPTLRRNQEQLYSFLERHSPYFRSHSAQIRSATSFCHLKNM

Molecule	Activity/Conditions ([1]; Induced, log phase)	Proteinase activity (cleavage of pVII) ([1]; extracts of IPTG-induced)	Rate (pmol substrate min^-1) [2] [pmol substrate min^-1]	Stimulation (fold): rate in presence of effector divided by rate in its absence [2] [fold]	Effector concentration that gave maximal stimulation of proteinase activity [2] [nM]	further results
23K8: recombinant wild-type Ad2 proteinase from pT7AD23K8 (gene with AflII site)	Active	active	–	–	–	Cleavage of HEP1DBP (HEP1DBP; incubated together with disrupted H2ts1 virions): cleavage was obtained; Cleavage of HEP1DBP (HEP1DBP; incubated with HEP1DBP alone, no added cofactors): no cleavage
23K10: recombinant Ad2 proteinase from pT7AD23K10, same reading frame as pT7AD23k6	Active	active	–	–	–	–
23K11: Ad2 proteinase variant, E5 QELKAIVK13 deleted, 194 amino acids	–	not active	–	–	–	Proteinase activity (cleavage of pVII) ([1]; either uninduced, stationary or induced): No processing activity was detected; also recorded: No proteinase activity; Activity/Conditions ([1]; no growth conditions printed): Inactive
23K13: Ad2 proteinase variant with GHHHHHHNM at carboxy-terminus	Active	as active as 23k6	–	–	–	–
N[C@@H](CC(=O)O)C(=O)O [Aspartic acid]	–	–	2.1	< 1.0	1380	–
N[C@@H](CCC(=O)O)C(=O)O [Glutamic acid]	–	–	2.3	< 1.0	780	–
CGYGPKKKRKVGG [peptide similar in character to pVI-c]	–	–	–	–	–	Substitution for the pVI-c peptide as cofactor [2]: did not substitute
H2ts1: ts Ad2 proteinase with P to L mutation in codon 137, expressed from pT7AD23K18	–	–	–	–	–	Activity/Conditions ([1]; no growth conditions printed): Temperature-; EP activity (HEP1DBP; DEAE flow-through fractions from pT7AD23K18/BL21(DE3) grown at 30° C., in the presence of H2ts1 virions, substrate not stated): No EP activity
Heparin	–	–	12.9	4.7	33	Substitution for Ad2 DNA as cofactor of proteinase activity ([2]; in vitro): substituted for Ad2 DNA
